Results from patent publication US10967078B2, “Radiolabelled mGluR2 PET ligands” (Janssen Pharmaceutica NV, priority 2014, dated 2021).

Assay: Biodistribution studies in normal female Wistar rats
Type: in vivo, rat
Conditions: for % ID blood / SUV blood / % ID bone / SUV bone / % ID carcass / % ID cerebellum / SUV cerebellum / SUV cerebrum + cerebellum / % ID cerebrum total / % ID cortex / SUV cortex / % ID heart / % ID hippocampus / SUV hippocampus / % ID intestines / % ID kidneys / % ID liver / % ID lungs / % ID muscle / SUV muscle / % ID rest of cerebrum / SUV rest of cerebrum / % ID spleen + pancreas / % ID stomach / % ID striatum / SUV striatum / % ID urine / SUV whole cerebrum: mean n=3; for SUV cerebrum + cerebellum / Total brain uptake: cerebrum + cerebellum; for Total brain uptake: n=3
Experimental: High-performance liquid chromatography (HPLC) analysis was performed on a LaChrom Elite® HPLC system (Hitachi, Armstadt, Germany) connected to a UV spectrometer. For the analysis of radiolabeled compounds, the HPLC eluate, after passage through the UV detector, was led over a shielded 3-inch NaI(Tl) scintillation detector connected to a single channel analyser (Gabi box, Raytest, Straubenhardt, Germany). The output signal was recorded and analysed using a GINA Star data acquisition system (Raytest, Straubenhardt, Germany). Radioactivity in samples of biodistribution studies was quantified using an automated gamma counter equipped with a 3-inch NaI(Tl) well crystal coupled to a multichannel analyser (Wallac 2480 Wizard, Wallac, Turku, Finland). Results were corrected for background radiation, physical decay and counter dead time. Animals were housed in individually ventilated cages in a thermoregulated (˜22° C.), humidity-controlled facility under a 12 h/12 h light/dark cycle with access to food and water ad libitum. All animal experiments were conducted according to the Belgian code of practice for the care and use of animals, after approval from the local University Ethics Committee for Animals.
Biodistribution studies of [^11C]-2 and [^11C]-1 were carried out in healthy female Wister rats (body weight 185-220 g) at 2 min, 30 min and 60 min post injection (p.i.) (n=3/time point). Rats were injected with about 18 MBq of the tracer via a tail vein under anesthesia (2.5% isoflurane in O2 at 1 L/min flow rate) and sacrificed by decapitation at the above specified time points. Blood and major organs were collected in tared tubes and weighed. The radioactivity in blood, organs and other body parts was measured using an automated gamma counter. For calculation of total blood radioactivity, blood mass was assumed to be 7% of the body mass. For calculation of total muscle and total bone radioactivity, muscle and bone mass were assumed to be 40% and 12% of the body mass, respectively.

With `C[C@H]1CN(c2ccc(C(F)(F)F)cc2)C(=O)c2c(-c3ccnc(N[11CH3])c3)cnn21` [[^11C]-2] the “2 min - to- 30 min wash-out ratio” value (blood) was 1.75, the “% ID blood” value (blood, 2 min p.i.) was 4.9 % ID and the SUV blood (blood, 2 min p.i.) was 0.70 SUV. For the same molecule, the “% ID blood” value (blood, 30 min p.i.) was 2.8 % ID, the SUV blood (blood, 30 min p.i.) was 0.40 SUV and the “% ID blood” value (blood, 60 min p.i.) was 2.0 % ID. The SUV blood (blood, 60 min p.i.) was 0.29 SUV, the “2 min - to- 30 min wash-out ratio” value (bone) was 1.34 and the “% ID bone” value (bone, 2 min p.i.) was 7.0 % ID. For the same molecule, the SUV bone (bone, 2 min p.i.) was 0.59 SUV, the “% ID bone” value (bone, 30 min p.i.) was 4.9 % ID and the SUV bone (bone, 30 min p.i.) was 0.44 SUV. The “% ID bone” value (bone, 60 min p.i.) was 4.2 % ID, the SUV bone (bone, 60 min p.i.) was 0.37 SUV and the “% ID carcass” value (2 min p.i.) was 39.5 % ID. The “% ID carcass” value (30 min p.i.) was 49.9 % ID, the “% ID carcass” value (60 min p.i.) was 44.8 % ID and the “2 min - to- 30 min wash-out ratio” value (cerebellum) was 2.85. For the same molecule, the “% ID cerebellum” value (cerebellum, 2 min p.i.) was 0.279 % ID, the SUV cerebellum (cerebellum, 2 min p.i.) was 1.78 SUV and the “% ID cerebellum” value (cerebellum, 30 min p.i.) was 0.084 % ID. For the same molecule, the SUV cerebellum (cerebellum, 30 min p.i.) was 0.62 SUV, the “% ID cerebellum” value (cerebellum, 60 min p.i.) was 0.058 % ID and the SUV cerebellum (cerebellum, 60 min p.i.) was 0.45 SUV. For the same molecule, the “SUV cerebrum + cerebellum” value (2 min p.i.) was 1.80 SUV, the Total brain uptake (2 min p.i.) was 1.4 % ID and the Total brain uptake (2 min p.i., listed as [^11C-2]) was 1.44 ± 0.24 % ID. For the same molecule, the “SUV cerebrum + cerebellum” value (30 min p.i.) was 0.67 SUV, the Total brain uptake (30 min p.i.) was 0.50 ± 0.05 % ID and the “SUV cerebrum + cerebellum” value (60 min p.i.) was 0.49 SUV. The Total brain uptake (60 min p.i.) was 0.38 ± 0.03 % ID, the “% ID cerebrum total” value (2 min p.i.) was 1.153 % ID and the “% ID cerebrum total” value (30 min p.i.) was 0.408 % ID. The “% ID cerebrum total” value (60 min p.i.) was 0.316 % ID, the “2 min - to- 30 min wash-out ratio” value (cortex) was 3.04 and the “% ID cortex” value (cortex, 2 min p.i.) was 0.064 % ID. For the same molecule, the SUV cortex (cortex, 2 min p.i.) was 2.23 SUV, the “% ID cortex” value (cortex, 30 min p.i.) was 0.024 % ID and the SUV cortex (cortex, 30 min p.i.) was 0.74 SUV. The “% ID cortex” value (cortex, 60 min p.i.) was 0.014 % ID, the SUV cortex (cortex, 60 min p.i.) was 0.58 SUV and the “% ID heart” value (2 min p.i.) was 1.0 % ID. For the same molecule, the “% ID heart” value (30 min p.i.) was 0.4 % ID, the “% ID heart” value (60 min p.i.) was 0.3 % ID and the “2 min - to- 30 min wash-out ratio” value (hippocampus) was 2.31. The “% ID hippocampus” value (hippocampus, 2 min p.i.) was 0.046 % ID, the SUV hippocampus (hippocampus, 2 min p.i.) was 1.49 SUV and the “% ID hippocampus” value (hippocampus, 30 min p.i.) was 0.018 % ID. The SUV hippocampus (hippocampus, 30 min p.i.) was 0.64 SUV, the “% ID hippocampus” value (hippocampus, 60 min p.i.) was 0.016 % ID and the SUV hippocampus (hippocampus, 60 min p.i.) was 0.49 SUV. The “% ID intestines” value (2 min p.i.) was 12.2 % ID, the “% ID intestines” value (30 min p.i.) was 19.4 % ID and the “% ID intestines” value (60 min p.i.) was 24.2 % ID. For the same molecule, the “% ID kidneys” value (2 min p.i.) was 5.3 % ID, the “% ID kidneys” value (30 min p.i.) was 2.2 % ID and the “% ID kidneys” value (60 min p.i.) was 1.6 % ID. The “% ID liver” value (2 min p.i.) was 26.5 % ID, the “% ID liver” value (30 min p.i.) was 16.0 % ID and the “% ID liver” value (60 min p.i.) was 11.9 % ID. The “% ID lungs” value (2 min p.i.) was 6.8 % ID, the “% ID lungs” value (30 min p.i.) was 1.8 % ID and the “% ID lungs” value (60 min p.i.) was 1.3 % ID. The “2 min - to- 30 min wash-out ratio” value (muscle) was 0.46, the “% ID muscle” value (muscle, 2 min p.i.) was 11.1 % ID and the SUV muscle (muscle, 2 min p.i.) was 0.26 SUV. For the same molecule, the “% ID muscle” value (muscle, 30 min p.i.) was 24.1 % ID, the SUV muscle (muscle, 30 min p.i.) was 0.56 SUV and the “% ID muscle” value (muscle, 60 min p.i.) was 21.4 % ID. For the same molecule, the SUV muscle (muscle, 60 min p.i.) was 0.48 SUV, the “2 min - to- 30 min wash-out ratio” value (rest of cerebrum) was 2.71 and the “% ID rest of cerebrum” value (rest of cerebrum, 2 min p.i.) was 0.944 % ID. For the same molecule, the “SUV rest of cerebrum” value (rest of cerebrum, 2 min p.i.) was 1.79 SUV, the “% ID rest of cerebrum” value (rest of cerebrum, 30 min p.i.) was 0.323 % ID and the “SUV rest of cerebrum” value (rest of cerebrum, 30 min p.i.) was 0.66 SUV. The “% ID rest of cerebrum” value (rest of cerebrum, 60 min p.i.) was 0.256 % ID, the “SUV rest of cerebrum” value (rest of cerebrum, 60 min p.i.) was 0.49 SUV and the “% ID spleen + pancreas” value (2 min p.i.) was 2.4 % ID. For the same molecule, the “% ID spleen + pancreas” value (30 min p.i.) was 1.4 % ID, the “% ID spleen + pancreas” value (60 min p.i.) was 1.1 % ID and the “% ID stomach” value (2 min p.i.) was 2.3 % ID. The “% ID stomach” value (30 min p.i.) was 6.5 % ID, the “% ID stomach” value (60 min p.i.) was 12.3 % ID and the “2 min - to- 30 min wash-out ratio” value (striatum) was 2.59. For the same molecule, the “% ID striatum” value (striatum, 2 min p.i.) was 0.099 % ID, the SUV striatum (striatum, 2 min p.i.) was 1.68 SUV and the “% ID striatum” value (striatum, 30 min p.i.) was 0.043 % ID. For the same molecule, the SUV striatum (striatum, 30 min p.i.) was 0.65 SUV, the “% ID striatum” value (striatum, 60 min p.i.) was 0.030 % ID and the SUV striatum (striatum, 60 min p.i.) was 0.49 SUV. The “% ID urine” value (2 min p.i.) was 0.1 % ID, the “% ID urine” value (30 min p.i.) was 0.5 % ID and the “% ID urine” value (60 min p.i.) was 11 % ID. The “2 min - to- 30 min wash-out ratio” value (whole cerebrum) was 2.70, the SUV whole cerebrum (whole cerebrum, 2 min p.i.) was 1.79 SUV and the SUV whole cerebrum (whole cerebrum, 30 min p.i.) was 0.66 SUV. For the same molecule, the SUV whole cerebrum (whole cerebrum, 60 min p.i.) was 0.49 SUV.
